Test results from publication PMC9403976, “Elucidating the path to Plasmodium prolyl-tRNA synthetase inhibitors that overcome halofuginone resistance” (Nature Communications, 2022).
Where “and” joins values, the source holds several entries; their conditions need not be identical. Equal entries are not always repeated. Where two headings read alike, the source gives them in different places.

Legend:
[1] = system: halofuginone-induced P. falciparum (elevated proline homeostasis); assay: P. falciparum ABS growth assay, SYBR Green, 72 h, halofuginone-induced parasites; type: cell-based, Plasmodium falciparum
Excerpt: Parasites were maintained under standard culture conditions as described previously[56],[57]. […] The P. falciparum Dd2 cell lines used in this study (Dd2-2D4, halofuginone-induced, and HFGR-I) have previously undergone whole genome sequencing in our labs. They were also routinely assayed and EC50 values determined using the ABS growth assay (see below) with a panel of standard antimalarial compounds, including halofuginone which has differential activity for the three Dd2 lines used in these experiments. Data were cross-referenced for consistency with literature reported values and data previously acquired in the lab.
This assay was performed as previously described. In short, P. falciparum erythrocytic-stage parasites at 1% parasitemia and 1% hematocrit in RPMI + 0.5% Albumax were seeded at 40 μL/well in 384-well plates with test compounds in triplicate, dose-response format with 10 μM dihydroartemisinin as a kill-control and blank (no compound) wells as a growth-control. […] After 72 h, growth was quantified by measuring fluorescence (Molecular Devices SpectraMax iD5) following SYBR Green 1 staining. Data were analyzed in Excel and plotted in PRISM (V. 8.4.3–9.1.0, GraphPad).

PfcProRS = target: T1, PfcProRS (Plasmodium falciparum, UniProt Q8I5R7); type: binding; details: single replicates
T1 construct: made in house; host or cells: E. coli SoluBL-21

P. falciparum Dd2-2D4 = assay: P. falciparum asexual blood stage (ABS) growth assay, SYBR Green, 72 h, wild-type parasites; type: cell-based, Plasmodium falciparum; details: for ABS growth dose-response, normalized signal (Replicates 1-3): Dd2-2D4
HsProRS = HsProRS (Homo sapiens, UniProt P07814); assay: TR-FRET ligand displacement assay with tracer MAT379 (CoraFluor-1-Halo and anti-His6 antibody formats); type: binding; parameters: made in house; host or cells: E. coli SoluBL-21; details: for TR-FRET dose-response, normalized signal (SI Fig 11): individual replicates
HsProRS, sequence (P07814 996-1512): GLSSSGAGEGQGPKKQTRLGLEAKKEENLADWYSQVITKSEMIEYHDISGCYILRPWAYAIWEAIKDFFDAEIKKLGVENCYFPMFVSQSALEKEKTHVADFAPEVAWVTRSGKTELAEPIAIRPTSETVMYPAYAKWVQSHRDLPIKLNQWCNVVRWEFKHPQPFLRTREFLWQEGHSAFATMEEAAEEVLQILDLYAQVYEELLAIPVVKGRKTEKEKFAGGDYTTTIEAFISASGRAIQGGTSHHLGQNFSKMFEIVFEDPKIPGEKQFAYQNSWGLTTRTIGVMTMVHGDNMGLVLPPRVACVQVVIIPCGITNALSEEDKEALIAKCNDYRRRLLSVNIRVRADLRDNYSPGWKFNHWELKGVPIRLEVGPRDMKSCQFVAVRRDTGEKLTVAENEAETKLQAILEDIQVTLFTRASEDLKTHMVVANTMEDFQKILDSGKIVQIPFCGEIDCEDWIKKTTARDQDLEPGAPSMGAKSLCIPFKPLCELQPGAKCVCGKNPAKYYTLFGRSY

T1 sequence (Q8I5R7 249-746): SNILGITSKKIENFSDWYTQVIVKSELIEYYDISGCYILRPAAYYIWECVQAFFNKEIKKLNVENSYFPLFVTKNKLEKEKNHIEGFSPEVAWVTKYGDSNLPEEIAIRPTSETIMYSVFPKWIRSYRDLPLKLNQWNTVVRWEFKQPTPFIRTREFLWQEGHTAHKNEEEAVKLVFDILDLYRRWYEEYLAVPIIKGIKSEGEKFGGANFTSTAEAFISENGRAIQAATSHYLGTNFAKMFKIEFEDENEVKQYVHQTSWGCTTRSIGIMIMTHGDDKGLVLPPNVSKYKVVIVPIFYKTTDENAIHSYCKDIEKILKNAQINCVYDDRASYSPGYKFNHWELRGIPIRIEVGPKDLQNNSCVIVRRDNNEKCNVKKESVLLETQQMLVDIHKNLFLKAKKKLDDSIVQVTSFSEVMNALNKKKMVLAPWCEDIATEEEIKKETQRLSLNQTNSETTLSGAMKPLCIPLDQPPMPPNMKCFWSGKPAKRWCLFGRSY

O=C(NC1Cc2ccccc2C1)c1nccnc1NC(=O)C1CCC1 [compound 20]
dose-response value, Replicates 1-3 (SI Fig 2e) ([1]; Log[inhibitor] (M) -8.699): 102 | dose-response value, Replicates 1-3 (SI Fig 2e) ([1]; Log[inhibitor] (M) -9.000): 101 | dose-response signal (normalized), SI Fig 8 (PfcProRS; Log[inhibitor] (M) -5.000): -3.34E-02 and -2.16E-02 and 4.43E-02 | dose-response signal (normalized), SI Fig 8 (PfcProRS; Log[inhibitor] (M) -5.301): 9.72E-02 and 2.14E-03 and 9.57E-02 | dose-response signal (normalized), SI Fig 8 (PfcProRS; Log[inhibitor] (M) -5.601): 1.29E-01 and 1.68E-01 and 1.72E-01 | dose-response signal (normalized), SI Fig 8 (PfcProRS; Log[inhibitor] (M) -5.904): 2.39E-01 and 2.05E-01 and 1.23E-01 | dose-response signal (normalized), SI Fig 8 (PfcProRS; Log[inhibitor] (M) -6.208): 3.45E-01 and 2.90E-01 and 4.22E-01 | dose-response signal (normalized), SI Fig 8 (PfcProRS; Log[inhibitor] (M) -6.509): 6.21E-01 and 6.16E-01 and 6.02E-01 | dose-response signal (normalized), SI Fig 8 (PfcProRS; Log[inhibitor] (M) -6.796): 8.63E-01 and 8.36E-01 and 8.81E-01 | dose-response signal (normalized), SI Fig 8 (PfcProRS; Log[inhibitor] (M) -7.108): 1.04E+00 and 9.78E-01 and 9.41E-01 | dose-response signal (normalized), SI Fig 8 (PfcProRS; Log[inhibitor] (M) -7.409): 1.10E+00 and 1.00E+00 and 1.03E+00 | dose-response signal (normalized), SI Fig 8 (PfcProRS; Log[inhibitor] (M) -7.710): 1.05E+00 and 1.02E+00 (2×) | dose-response signal (normalized), SI Fig 8 (PfcProRS; Log[inhibitor] (M) -8.000): 1.14E+00 and 1.06E+00 and 1.15E+00 | dose-response signal (normalized), SI Fig 8 (PfcProRS; Log[inhibitor] (M) -8.301): 1.07E+00 and 1.03E+00 and 9.53E-01 | dose-response signal (normalized), SI Fig 8 (PfcProRS; Log[inhibitor] (M) -8.602): 1.04E+00 and 1.07E+00 and 9.70E-01 | dose-response signal (normalized), SI Fig 8 (PfcProRS; Log[inhibitor] (M) -9.000): 1.05E+00 and 1.02E+00 and 1.08E+00 | dose-response signal (normalized), SI Fig 8 (PfcProRS; Log[inhibitor] (M) -9.301): 1.08E+00 and 9.05E-01 and 9.37E-01 | ABS growth dose-response, normalized signal (Replicates 1-3) (P. falciparum Dd2-2D4; Log[inhibitor] (M) -5.000): 1 | ABS growth dose-response, normalized signal (Replicates 1-3) (P. falciparum Dd2-2D4; Log[inhibitor] (M) -5.301): 7 | EC50 (P. falciparum Dd2-2D4; Plasmodium falciparum, DD2, SI Fig 16b, values on -log scale, read-out: ABS - Dd2-2D4 (converted)): 3740 nM | Kd (HsProRS; HsProRS (KD [nM]) mean, no added proline/ATP (-)): 738 nM | Kd (HsProRS; HsProRS - best Kd, SI Fig 16a, values on -log scale): 13.2 nM | normalized TR-FRET ligand displacement signal, dose-response replicates (SI Fig 6) (HsProRS; Log[inhibitor] (M) -5.000): 1.86E-01 and 1.74E-01 and 2.39E-01 | TR-FRET dose-response, normalized signal (SI Fig 11) (HsProRS; Log[inhibitor] (M) -5.000): 1.04E-01 and 5.16E-02 and 1.08E-01 | normalized TR-FRET ligand displacement signal, dose-response replicates (SI Fig 6) (HsProRS; Log[inhibitor] (M) -5.301): 4.97E-01 and 4.61E-01 and 4.31E-01 | TR-FRET dose-response, normalized signal (SI Fig 11) (HsProRS; Log[inhibitor] (M) -5.301): 1.41E-01 and 1.42E-01 and 1.77E-01 | normalized TR-FRET ligand displacement signal, dose-response replicates (SI Fig 6) (HsProRS; Log[inhibitor] (M) -5.601): 6.11E-01 and 7.58E-01 and 7.79E-01 | TR-FRET dose-response, normalized signal (SI Fig 11) (HsProRS; Log[inhibitor] (M) -5.601): 3.04E-01 and 2.78E-01 and 2.50E-01 | normalized TR-FRET ligand displacement signal, dose-response replicates (SI Fig 6) (HsProRS; Log[inhibitor] (M) -5.904): 8.89E-01 and 8.92E-01 and 8.45E-01 | TR-FRET dose-response, normalized signal (SI Fig 11) (HsProRS; Log[inhibitor] (M) -5.904): 4.25E-01 and 3.97E-01 and 4.79E-01 | normalized TR-FRET ligand displacement signal, dose-response replicates (SI Fig 6) (HsProRS; Log[inhibitor] (M) -6.208): 9.16E-01 and 8.68E-01 and 9.52E-01 | TR-FRET dose-response, normalized signal (SI Fig 11) (HsProRS; Log[inhibitor] (M) -6.208): 6.09E-01 and 5.97E-01 and 5.95E-01 | normalized TR-FRET ligand displacement signal, dose-response replicates (SI Fig 6) (HsProRS; Log[inhibitor] (M) -6.509): 1.03E+00 and 8.94E-01 and 8.53E-01 | TR-FRET dose-response, normalized signal (SI Fig 11) (HsProRS; Log[inhibitor] (M) -6.509): 6.97E-01 and 7.43E-01 and 6.91E-01 | normalized TR-FRET ligand displacement signal, dose-response replicates (SI Fig 6) (HsProRS; Log[inhibitor] (M) -6.796): 1.03E+00 (2×) and 1.11E+00 | TR-FRET dose-response, normalized signal (SI Fig 11) (HsProRS; Log[inhibitor] (M) -6.796): 8.43E-01 and 8.17E-01 and 8.38E-01 | normalized TR-FRET ligand displacement signal, dose-response replicates (SI Fig 6) (HsProRS; Log[inhibitor] (M) -7.108): 9.80E-01 and 1.08E+00 and 1.02E+00 | TR-FRET dose-response, normalized signal (SI Fig 11) (HsProRS; Log[inhibitor] (M) -7.108): 8.72E-01 and 8.51E-01 and 8.01E-01 | normalized TR-FRET ligand displacement signal, dose-response replicates (SI Fig 6) (HsProRS; Log[inhibitor] (M) -7.409): 9.83E-01 and 1.12E+00 and 9.82E-01 | TR-FRET dose-response, normalized signal (SI Fig 11) (HsProRS; Log[inhibitor] (M) -7.409): 9.24E-01 and 8.62E-01 and 9.39E-01 | normalized TR-FRET ligand displacement signal, dose-response replicates (SI Fig 6) (HsProRS; Log[inhibitor] (M) -7.710): 9.31E-01 and 9.49E-01 and 8.80E-01 | TR-FRET dose-response, normalized signal (SI Fig 11) (HsProRS; Log[inhibitor] (M) -7.710): 9.14E-01 and 9.13E-01 and 9.09E-01 | normalized TR-FRET ligand displacement signal, dose-response replicates (SI Fig 6) (HsProRS; Log[inhibitor] (M) -8.000): 1.05E+00 and 9.80E-01 and 9.83E-01 | TR-FRET dose-response, normalized signal (SI Fig 11) (HsProRS; Log[inhibitor] (M) -8.000): 9.16E-01 and 9.29E-01 and 9.47E-01 | normalized TR-FRET ligand displacement signal, dose-response replicates (SI Fig 6) (HsProRS; Log[inhibitor] (M) -8.301): 9.29E-01 and 1.08E+00 and 8.52E-01 | TR-FRET dose-response, normalized signal (SI Fig 11) (HsProRS; Log[inhibitor] (M) -8.301): 9.16E-01 and 9.69E-01 and 9.32E-01 | normalized TR-FRET ligand displacement signal, dose-response replicates (SI Fig 6) (HsProRS; Log[inhibitor] (M) -8.602): 9.34E-01 and 1.03E+00 and 1.00E+00 | TR-FRET dose-response, normalized signal (SI Fig 11) (HsProRS; Log[inhibitor] (M) -8.602): 9.06E-01 and 9.54E-01 and 9.32E-01 | normalized TR-FRET ligand displacement signal, dose-response replicates (SI Fig 6) (HsProRS; Log[inhibitor] (M) -9.000): 1.01E+00 and 9.37E-01 and 8.87E-01 | TR-FRET dose-response, normalized signal (SI Fig 11) (HsProRS; Log[inhibitor] (M) -9.000): 9.11E-01 and 9.90E-01 and 9.12E-01 | normalized TR-FRET ligand displacement signal, dose-response replicates (SI Fig 6) (HsProRS; Log[inhibitor] (M) -9.301): 9.68E-01 and 9.96E-01 and 9.12E-01 | TR-FRET dose-response, normalized signal (SI Fig 11) (HsProRS; Log[inhibitor] (M) -9.301): 9.37E-01 and 9.39E-01 and 8.38E-01
